Source: US8802724B2, “Processes and intermediates for preparing substituted hexahydrofuro [2,3-b] furans” (Purdue Research Foundation, priority 2010, dated 2014)
Where two headings read alike, the source gives them in different places.

What was measured:
HIV-1 protease = HIV-1 protease (Human immunodeficiency virus type 1 group M subtype B (isolate HXB2) (HIV-1), UniProt P04585); assay: biochemical; conditions: enzymatic inhibitory activity
HIV-1LAI = assay: Antiviral MTT assay, MT-2 cells exposed to HIV-1LAI; type: cell-based; conditions: Human immunodeficiency virus 1, MT2
Procedure: As shown in Scheme 4, alcohols 14, 15, 20, and 21 were activated with p-nitrophenyl chloroformate to provide mixed activated carbonates 21a-d. These carbonates were reacted with amine 22 to afford HIV-1 protease inhibitors 23a-d. These inhibitors were evaluated for their activity in both enzyme inhibitory and antiviral assays. The enzyme inhibitory activity (Ki) was determined according to an assay protocol reported by Toth and Marshall (Toth, M. V.; Marshall, G. R. Int. J. Pep. Protein Res. 1990, 36, 544-550). […] Antiviral IC50 values were determined using the MTT assay (Koh, Y., et al., Antimicrob. Agents Chemother. 2003, 47, 3123-3129.).

Compound: COc1ccc(S(=O)(=O)N(CC(C)C)C[C@@H](O)[C@H](Cc2ccccc2)NC(=O)O[C@H]2CO[C@H]3OC[C@H](OCc4ccccc4)[C@H]32)cc1 [Compound 23d, (3R,3aS,4R,6aR)-4-(benzyloxy)hexahydrofuro[2,3-b]furan-3-yl-(2S,3R)-3-hydroxy-4-(N-isobutyl-4-methoxyphenylsulfonamido)-1-phenylbutan-2-ylcarbamate]
- Ki (HIV-1 protease): 0.3 nM

Compound: COc1ccc(S(=O)(=O)N(CC(C)C)C[C@@H](O)[C@H](Cc2ccccc2)NC(=O)O[C@H]2CO[C@H]3OC[C@H](OC)[C@H]32)cc1 [Compound 23c, (3R,3aS,4R,6aR)-4-methoxyhexahydrofuro[2,3-b]furan-3-yl-(2S,3R)-3-hydroxy-4-(N-isobutyl-4-methoxyphenylsulfonamido)-1-phenylbutan-2-ylcarbamate]
- IC50 (HIV-1LAI): 2.4 nM
- Ki (HIV-1 protease): 0.0029 nM

Compound: COc1ccc(S(=O)(=O)N(CC(C)C)C[C@@H](O)[C@H](Cc2ccccc2)NC(=O)O[C@H]2CO[C@H]3OC[C@@H](OC)[C@H]32)cc1 [Compound 23a, (3R,3aS,4S,6aR)-4-methoxyhexahydrofuro[2,3-b]furan-3-yl-(2S,3R)-3-hydroxy-4-(N-isobutyl-4-methoxyphenylsulfonamido)-1-phenylbutan-2-ylcarbamate]
- IC50 (HIV-1LAI): 56 nM
- Ki (HIV-1 protease): 0.035 nM

Compound: COc1ccc(S(=O)(=O)N(CC(C)C)C[C@@H](O)[C@H](Cc2ccccc2)NC(=O)O[C@H]2CO[C@H]3OCC[C@H]32)cc1 [Entry 1, reference compound]
- IC50 (HIV-1LAI; Human T-lymphoid (MT-2) cells exposed to 100 TCID50 of HIV-1LAI, MTT assay, means of at least three experiments, read-out: IC50): 1.4 nM

Compound: COc1ccc(S(=O)(=O)N(CC(C)C)C[C@@H](O)[C@H](Cc2ccccc2)NC(=O)O[C@H]2CO[C@H]3OC[C@@H](OCc4ccccc4)[C@H]32)cc1 [Compound 23b, (3R,3aS,4S,6aR)-4-(benzyloxy)hexahydrofuro[2,3-b]furan-3-yl-(2S,3R)-3-hydroxy-4-(N-isobutyl-4-methoxyphenylsulfonamido)-1-phenylbutan-2-ylcarbamate]
- IC50 (HIV-1LAI): 335 nM
- Ki (HIV-1 protease): 0.073 nM
